Results reported in patent US9889093B2, “Application of andrographolide in the preparation of a pharmaceutical for treatment of inflammatory bowel disease, andrographolide enteric targeting micropellet, and method for preparation thereof” (TASLY PHARMACEUTICAL GROUP CO., LTD., priority 2013, dated 2018).
Values after ≈ are worked out from the molar mass of the structure shown. Marks after values point to notes of the source that are not given here.

How the values were obtained:
[1] = system: TNBS-induced colitis mice; assay: TNBS-induced UC (colitis) mouse model; format: in vivo; conditions: for Body weight / Colon weight: oral twice daily; for Body weight / Colon weight / Colon scores / Colon indices / Decrease rate of colon specific weight: 7 days; for Colon scores: histopathological score 0-4; for Colon indices: percentage of colon weight to body weight; for Decrease rate of colon specific weight: vs model control group
Experimental: 5% (w/v) TNBS solution was diluted with double-distilled water and mixed with 50% (v/v) ethanol in equal volume to have 1.5% (w/v) TNBS solution. In the model control group, the mice were anesthetized with 1 wt % pentobarbital solution at a dose of 0.05 ml/10 g body weight. After being anesthetized, the mice were administrated with 1.5% (w/v) TNBS solution at a dose of 0.1 ml/mouse by gently inserting stomach perfusion device to about 3 cm depth via anus and arriving at the colon, and the IBD was induced. In the saline group, the saline was gently injected into the colon at a dose of 0.1 ml/mouse. In the normal control group, 50% (v/v) ethanol was gently injected into the colon at a dose of 0.1 ml mouse.
After one week adaptive feeding, all animals were randomly divided into 5 groups according to body weight, 10 mice in one group: the normal control group, the model control group, the andrographolide low-dose group (20 mg/kg/d), the andrographolide high-dose group (40 mg/kg/d) and the positive control group (Sulfasalazine group, 300 mg/kg/d). Two hours after making model, the animals in each treating groups were orally administrated twice daily with the andrographolide and once daily in the positive control group. After successive administration for 7 days, the abdomen was opened 24 hours after the last administration to observe adhesion degree between the colon and other organs. The colon was separated and weighed.
1. Body weight: after making model, body weight was measured every day to observe the change in the animals.
2. Evaluation of inflammation: the abdomen was opened 24 hours after the last administration to observe adhesion degree between the colon and other organs. Every segment of the colon was taken out and weighed to calculate the percentage of the colon weight to body weight, as the colon index. The formula was presented as follows: Decrease rate of colon specific weight=(colon index of the model control group−colon index of the treatment group)/colon index of the model control group×100%
3. Histopathological examination: a part of the colon was taken to prepare the pathological section, and the standard for score was as follows: • 0 score, no inflammatory symptoms; • 1 score, low-grade inflammation with no structure change; • 2 score, low-grade leukocyte infiltration; • 3 score, high-grade leukocyte infiltration, high vascular density, crypt extension, thickened colon wall and superficial ulcer • 4 score, high-grade leukocyte infiltrating exceeding to mucous layer, crypt extension, decrease of goblet cell, high vascular density, thickened colon wall and extensive ulcer
SPSS11.5 software was used for analysis and the data were expressed as x±S. Variance analysis was used for comparison of significant difference among groups.

[2] = system: TNBS-induced UC rats; assay: TNBS-induced UC rat model, different administration routes; format: in vivo; conditions: for Gross morphological injury score / Ulcer ratio: 5 days
Description: 4 Dose Designing and Grouping • 4.1 Grouping: quarantine-qualified 84 rats were all used for making UC model. The successful rats were randomly divided into 6 groups: the model control group, the positive control group, the andrographolide low-dose intragastric group, the andrographolide high-dose intragastric group, the andrographolide low-dose intracolonical group and the andrographolide high-dose intracolonical group, 14 rats per group. • 4.2 Dose: the same doses were adopted in both intragastric and intracolonical groups. Animals were not treated in the model control group, the positive control group (mesalazine enteric tablet, 420 mg·kg^−1·d^−1), the andrographolide low-dose intragastric group (30 mg·kg^−1·d^−1), the andrographolide high-dose intragastric group (90 mg·kg^−1·d^−1), the andrographolide low-dose intracolonical group (30 mg·kg^−1·d^−1) and the andrographolide high-dose intracolonical group (90 mg·kg^−1·d^−1).
5. Method • 5.1 Method of making UC model: the rats were anesthetized. 2 mm-diameter latex tube was gently inserted into the position about 8 cm inside the body of the rats through anus, and TNBS in 50% ethanol solution (TNBS 125 mg/kg) was injected into intestinal lumen with an injector by one time, 0.5 ml/rat. The tail of the rat was lifted up for 30 s to make the model making agent (i.e., TNBS) fully infiltrate into the intestinal lumen of the rats. • 5.2 Method of administration: the same dose (1 mL/100 g) was adopted in both intragastric and intracolonical administration, once daily for consecutive 5 days. • 5.3 Method for sampling in experiment: 2 hours after the last administration, the rats were killed by cervical vertebra dislocation and abdomen was opened to separate the colon. Along mesenteric side, the intestinal lumen was cut and rinsed with 4° C. normal saline and spread on a plastic plate. • 5.4 Scoring method for colon gross morphological injury was referred to scoring method for mucosal injury (Bjelkengren G, Aronsen K F, Augustsson N E, etc. Radioprotective effect of local administration of lysine vasopressin and triglycyl lysine vasopressin on the rectal mucosa in rats[J]. Acta Oncol, 1995, 34(4):487-92) to record the mucosal injury score: dotted line blooding and small red spots (<1 mm): 1 score, piece blooding and big red spots (=1 mm): 3 score; and erosion and ulcer: 5 score.
Data were expressed as mean+standard deviation (x±S). All numerical variables were analyzed with SPSS13.0 software by one-way ANOVA. T-test analysis was used for inter-group comparison.

[3] = system: zebra fish Crohn's disease model; assay: Zebra fish Crohn's disease model (TNBS), efficacy; format: in vivo; conditions: 48 hours
Experimental: Crohn's disease model (mainly inflammation) was built by using TNBS (2,4,6-trinitrobenzenesulfonic acid), and 30 zebra fishes were randomly divided into each treating group. […] Image analysis software was used to analyze the pictures. Moreover, the intestinal mucosal thickness, intestinal lumen diameter and intestinal lumen area were observed carefully under a microscope and the intestinal lumen diameter and intestinal lumen area were analyzed quantitatively. Therapeutical efficacy of the tested drug in zebra fish Crohn's disease was calculated in accordance with the intestinal lumen area in each group. The calculation formula was presented as follows: Therapeutical efficacy (%)=[1−(the administration group−the blank control group)/(the model group−the blank control group)]×100%
Statistically analyzed results were expressed as mean±SE. Variance analysis was used for comparison among many groups, and Dunnett's T test for comparison between two groups.

[4] = Solubility of the drug in DMSO and fish farm water; format: physicochemical
[5] = andrographolide high-dose 40 mg/kg/d
[6] = andrographolide low-dose 20 mg/kg/d
[7] = andrographolide high-dose 90 mg/kg, intracolonical
[8] = andrographolide high-dose 90 mg/kg, intragastric
[9] = andrographolide low-dose 30 mg/kg, intracolonical
[10] = andrographolide low-dose 30 mg/kg, intragastric

C=C1CC[C@@H]2[C@](C)(CO)[C@H](O)CC[C@@]2(C)[C@@H]1C/C=C1/C(=O)OC[C@H]1O [Andrographolide]
Body weight increase compared with the model control group ([1]; FIG. 1, treated groups): increased faster than that in the model control group
Body weight [1, 5]: 20.95 ± 1.09 g
Colon weight [1, 5]: 0.29 ± 0.09 g
Body weight [1, 6]: 19.95 ± 2.05 g
Colon weight [1, 6]: 0.43 ± 0.12 g
Colon scores [1, 5]: 1.8**
Colon scores [1, 6]: 3.2
Colon indices [1, 5]: 1.38 ± 0.46
Colon indices [1, 6]: 2.24 ± 0.90
Intestinal elasticity compared with the model control group ([1]; treated groups, after 7 days): higher than that in the model control group
Decrease rate of colon specific weight [1, 5]: 58.96%
Decrease rate of colon specific weight [1, 6]: 33.20%
Gross morphological injury score [2, 7]: 1.96 ± 1.09
Ulcer ratio [2, 7]: 17.21** %
Gross morphological injury score [2, 8]: 3.25 ± 1.98
Ulcer ratio [2, 8]: 29.21** %
Formless watery stool symptoms, course ([2]; andrographolide high-dose intragastric and intracolonical groups, 90 mg/kg): totally disappeared on the 4th˜5th days
Gross morphological injury score [2, 9]: 6.53 ± 2.12
Ulcer ratio [2, 9]: 38.54* %
Gross morphological injury score [2, 10]: 6.71 ± 2.57
Ulcer ratio [2, 10]: 45.69* %
Intestinal lumen area reduced by (therapeutical efficacy) ([3]; andrographolide 50 μg/ml): 38±12.9%
Intestinal lumen area reduced by (therapeutical efficacy) ([3]; andrographolide 100 μg/ml): 49±8.9%
Intestinal lumen area reduced by (therapeutical efficacy) ([3]; andrographolide 250 μg/ml): 65±14.7%
solubility ([4]; DMSO, organic solvent or mixture): ~250 mg/mL (≈ 713 mM)
Concentration at which the drug began to precipitate ([4]; fish farm water): ≥ 500 µg/mL
